Measured values published in ChEMBL document CHEMBL5331110, “Eyes on Topical Ocular Disposition: The Considered Design of a Lead Janus Kinase (JAK) Inhibitor That Utilizes a Unique Azetidin-3-Amino Bridging Scaffold to Attenuate Off-Target Kinase Activity, While Driving Potency and Aqueous Solubility” (J Med Chem, 2023).
Values after ≈ are worked out from the molar mass of the structure shown.

Columns and labels:
[1] = target: Tyrosine-protein kinase ABL1 (Homo sapiens, UniProt P00519)
Description: Inhibition of ABL1 (unknown origin) incubated for 45 to 120 mins in presence of ATP by Kinase-Glo luminescent assay

Aurora kinase B = Aurora kinase B (Homo sapiens, UniProt Q96GD4)
Description: Inhibition of AURKB (unknown origin) incubated for 45 to 120 mins in presence of ATP by Kinase-Glo luminescent assay

[2] = target: Tyrosine-protein kinase JAK2 (Homo sapiens, UniProt O60674)
Description: Inhibition of JAK2 (unknown origin) incubated for 45 to 120 mins in presence of ATP by Kinase-Glo luminescent assay

[3] = target: Tyrosine-protein kinase JAK1 (Homo sapiens, UniProt P23458); assay: Inhibition of JAK1 (unknown origin) incubated for 45 to 120 mins in presence of ATP by Kinase-Glo luminescent assay
[4] = Intrinsic aqueous solubility of the compound in citrate buffer at pH 6 by HPLC-UV/MS analysis
[5] = target: T1, Tyrosine-protein kinase JAK3 (Homo sapiens, UniProt P52333)
T1 sequence (P52333 whole entry): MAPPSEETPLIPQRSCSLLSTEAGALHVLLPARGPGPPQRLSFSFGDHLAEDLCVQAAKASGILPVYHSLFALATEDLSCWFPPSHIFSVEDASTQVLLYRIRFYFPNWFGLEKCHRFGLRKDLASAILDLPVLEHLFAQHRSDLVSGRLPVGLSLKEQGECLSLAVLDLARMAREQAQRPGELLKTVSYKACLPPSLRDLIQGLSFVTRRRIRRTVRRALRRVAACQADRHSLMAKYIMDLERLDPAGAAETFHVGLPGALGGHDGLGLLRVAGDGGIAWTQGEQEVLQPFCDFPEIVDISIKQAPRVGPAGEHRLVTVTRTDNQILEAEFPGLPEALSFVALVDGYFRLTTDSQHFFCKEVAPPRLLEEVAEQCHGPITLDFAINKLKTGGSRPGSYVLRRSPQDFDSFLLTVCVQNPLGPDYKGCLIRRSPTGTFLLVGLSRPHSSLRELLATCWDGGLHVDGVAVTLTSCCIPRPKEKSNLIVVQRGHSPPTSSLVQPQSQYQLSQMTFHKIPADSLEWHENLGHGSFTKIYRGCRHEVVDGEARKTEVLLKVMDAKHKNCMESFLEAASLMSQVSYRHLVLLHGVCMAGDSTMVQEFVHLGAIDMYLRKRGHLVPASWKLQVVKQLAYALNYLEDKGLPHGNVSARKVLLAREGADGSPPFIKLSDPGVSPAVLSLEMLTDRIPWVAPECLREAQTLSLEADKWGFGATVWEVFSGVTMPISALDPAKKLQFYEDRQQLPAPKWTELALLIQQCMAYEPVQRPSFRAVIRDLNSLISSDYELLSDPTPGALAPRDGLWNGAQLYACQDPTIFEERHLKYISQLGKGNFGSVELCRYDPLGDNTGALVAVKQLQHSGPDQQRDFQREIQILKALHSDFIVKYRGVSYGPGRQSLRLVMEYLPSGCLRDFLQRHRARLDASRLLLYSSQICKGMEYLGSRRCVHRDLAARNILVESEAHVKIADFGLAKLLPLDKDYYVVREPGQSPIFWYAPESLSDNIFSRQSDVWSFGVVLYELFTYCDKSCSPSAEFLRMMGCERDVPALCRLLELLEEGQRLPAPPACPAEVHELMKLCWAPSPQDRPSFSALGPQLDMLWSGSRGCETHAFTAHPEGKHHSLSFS
Description: Inhibition of JAK3 (unknown origin) incubated for 45 to 120 mins in presence of ATP by Kinase-Glo luminescent assay

[6] = target: Non-receptor tyrosine-protein kinase TYK2 (Homo sapiens, UniProt P29597)
Description: Inhibition of TYK2 (unknown origin) incubated for 45 to 120 mins in presence of ATP by Kinase-Glo luminescent assay

[7] = Dissociation constant, pKa of the compound by potentiometric titration method
[8] = target: Glycogen synthase kinase-3 beta (Homo sapiens, UniProt P49841)
Description: Inhibition of GSK3B (unknown origin) incubated for 45 to 120 mins in presence of ATP by Kinase-Glo luminescent assay

[9] = target: Vascular endothelial growth factor receptor 2 (Homo sapiens, UniProt P35968)
Vascular endothelial growth factor receptor 2, sequence (P35968 whole entry): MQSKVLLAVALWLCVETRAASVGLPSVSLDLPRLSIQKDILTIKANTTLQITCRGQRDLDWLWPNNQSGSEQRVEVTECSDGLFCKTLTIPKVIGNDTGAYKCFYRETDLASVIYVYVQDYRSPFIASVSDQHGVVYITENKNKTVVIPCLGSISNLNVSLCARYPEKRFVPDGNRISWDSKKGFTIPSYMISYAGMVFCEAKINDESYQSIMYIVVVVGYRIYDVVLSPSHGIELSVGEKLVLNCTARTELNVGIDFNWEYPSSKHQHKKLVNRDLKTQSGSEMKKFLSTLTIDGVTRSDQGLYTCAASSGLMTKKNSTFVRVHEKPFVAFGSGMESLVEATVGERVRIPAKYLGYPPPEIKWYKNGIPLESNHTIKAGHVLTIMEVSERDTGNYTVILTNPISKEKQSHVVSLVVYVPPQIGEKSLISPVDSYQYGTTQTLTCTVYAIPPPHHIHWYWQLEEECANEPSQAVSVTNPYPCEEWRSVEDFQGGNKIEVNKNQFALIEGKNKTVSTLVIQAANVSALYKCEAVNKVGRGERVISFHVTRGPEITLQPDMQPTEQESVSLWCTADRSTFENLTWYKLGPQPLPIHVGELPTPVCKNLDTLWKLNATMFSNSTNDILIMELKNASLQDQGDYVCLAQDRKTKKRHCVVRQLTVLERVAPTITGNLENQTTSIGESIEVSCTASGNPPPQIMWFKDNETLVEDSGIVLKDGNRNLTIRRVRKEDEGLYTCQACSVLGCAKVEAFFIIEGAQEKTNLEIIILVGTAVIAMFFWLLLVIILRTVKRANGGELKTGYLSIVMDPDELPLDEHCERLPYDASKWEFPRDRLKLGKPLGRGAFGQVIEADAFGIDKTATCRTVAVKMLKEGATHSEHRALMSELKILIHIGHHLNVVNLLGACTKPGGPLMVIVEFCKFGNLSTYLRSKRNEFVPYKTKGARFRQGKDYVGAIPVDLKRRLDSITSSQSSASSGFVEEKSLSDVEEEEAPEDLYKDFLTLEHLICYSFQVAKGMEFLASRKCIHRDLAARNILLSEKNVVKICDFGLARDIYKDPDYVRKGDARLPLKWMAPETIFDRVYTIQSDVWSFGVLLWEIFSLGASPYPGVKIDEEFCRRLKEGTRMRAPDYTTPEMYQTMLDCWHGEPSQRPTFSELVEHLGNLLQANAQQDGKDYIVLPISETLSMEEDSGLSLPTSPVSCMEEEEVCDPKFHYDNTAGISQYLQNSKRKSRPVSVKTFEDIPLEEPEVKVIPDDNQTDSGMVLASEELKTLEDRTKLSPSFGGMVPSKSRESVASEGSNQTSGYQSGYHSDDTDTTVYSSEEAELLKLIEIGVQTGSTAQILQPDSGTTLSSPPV
Description: Inhibition of KDR (unknown origin) incubated for 45 to 120 mins in presence of ATP by Kinase-Glo luminescent assay

Tyrosine-protein kinase JAK1, sequence (P23458 whole entry): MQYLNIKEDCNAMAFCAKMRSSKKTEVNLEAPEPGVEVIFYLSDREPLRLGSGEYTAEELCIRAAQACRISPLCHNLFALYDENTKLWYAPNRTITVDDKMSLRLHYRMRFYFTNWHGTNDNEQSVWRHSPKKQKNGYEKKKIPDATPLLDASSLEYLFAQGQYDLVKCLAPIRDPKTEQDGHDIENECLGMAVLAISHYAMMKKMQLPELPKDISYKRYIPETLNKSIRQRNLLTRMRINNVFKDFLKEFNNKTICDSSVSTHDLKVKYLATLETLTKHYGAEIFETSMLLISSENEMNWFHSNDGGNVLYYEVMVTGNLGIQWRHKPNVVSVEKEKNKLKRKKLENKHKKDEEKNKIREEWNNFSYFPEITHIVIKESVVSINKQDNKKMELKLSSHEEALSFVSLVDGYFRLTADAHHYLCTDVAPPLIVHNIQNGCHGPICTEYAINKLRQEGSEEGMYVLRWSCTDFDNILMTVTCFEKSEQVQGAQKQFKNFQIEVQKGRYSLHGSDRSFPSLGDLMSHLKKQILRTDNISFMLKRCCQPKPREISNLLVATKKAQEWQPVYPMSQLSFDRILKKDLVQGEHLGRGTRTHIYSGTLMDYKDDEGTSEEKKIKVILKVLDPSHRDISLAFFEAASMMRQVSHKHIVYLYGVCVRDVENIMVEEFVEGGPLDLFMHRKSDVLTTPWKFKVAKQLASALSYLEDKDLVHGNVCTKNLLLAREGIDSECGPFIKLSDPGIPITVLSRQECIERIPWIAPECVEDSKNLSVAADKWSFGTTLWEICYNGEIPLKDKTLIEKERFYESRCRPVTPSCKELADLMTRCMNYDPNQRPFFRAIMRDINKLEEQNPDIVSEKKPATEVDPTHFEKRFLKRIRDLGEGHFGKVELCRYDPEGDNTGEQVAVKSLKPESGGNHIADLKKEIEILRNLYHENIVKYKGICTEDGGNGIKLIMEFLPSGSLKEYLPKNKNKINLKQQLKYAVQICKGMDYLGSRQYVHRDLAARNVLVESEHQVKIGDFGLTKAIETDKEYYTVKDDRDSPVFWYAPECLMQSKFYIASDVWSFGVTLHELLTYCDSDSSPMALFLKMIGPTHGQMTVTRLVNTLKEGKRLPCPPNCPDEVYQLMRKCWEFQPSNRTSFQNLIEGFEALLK
Aurora kinase B, sequence (Q96GD4 whole entry): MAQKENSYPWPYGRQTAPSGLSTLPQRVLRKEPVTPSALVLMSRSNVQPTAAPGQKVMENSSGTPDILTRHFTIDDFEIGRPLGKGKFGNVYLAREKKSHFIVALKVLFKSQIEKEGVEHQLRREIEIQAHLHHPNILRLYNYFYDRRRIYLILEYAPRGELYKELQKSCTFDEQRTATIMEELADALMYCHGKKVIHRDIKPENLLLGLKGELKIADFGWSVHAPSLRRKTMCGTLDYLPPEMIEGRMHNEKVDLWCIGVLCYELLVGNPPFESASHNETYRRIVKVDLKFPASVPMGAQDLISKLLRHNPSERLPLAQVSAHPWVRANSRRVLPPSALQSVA
Glycogen synthase kinase-3 beta, sequence (P49841 whole entry): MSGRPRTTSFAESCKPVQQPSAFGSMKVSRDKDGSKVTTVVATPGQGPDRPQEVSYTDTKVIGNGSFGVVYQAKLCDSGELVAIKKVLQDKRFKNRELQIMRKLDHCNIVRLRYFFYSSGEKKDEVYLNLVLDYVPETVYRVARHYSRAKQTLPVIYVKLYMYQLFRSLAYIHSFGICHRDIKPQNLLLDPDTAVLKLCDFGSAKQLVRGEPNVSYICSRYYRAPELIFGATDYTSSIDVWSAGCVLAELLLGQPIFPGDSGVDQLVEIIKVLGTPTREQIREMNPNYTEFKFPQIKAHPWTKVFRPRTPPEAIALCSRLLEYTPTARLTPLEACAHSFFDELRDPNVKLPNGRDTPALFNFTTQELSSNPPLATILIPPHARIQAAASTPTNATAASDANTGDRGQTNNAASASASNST
Tyrosine-protein kinase ABL1, sequence (P00519 whole entry): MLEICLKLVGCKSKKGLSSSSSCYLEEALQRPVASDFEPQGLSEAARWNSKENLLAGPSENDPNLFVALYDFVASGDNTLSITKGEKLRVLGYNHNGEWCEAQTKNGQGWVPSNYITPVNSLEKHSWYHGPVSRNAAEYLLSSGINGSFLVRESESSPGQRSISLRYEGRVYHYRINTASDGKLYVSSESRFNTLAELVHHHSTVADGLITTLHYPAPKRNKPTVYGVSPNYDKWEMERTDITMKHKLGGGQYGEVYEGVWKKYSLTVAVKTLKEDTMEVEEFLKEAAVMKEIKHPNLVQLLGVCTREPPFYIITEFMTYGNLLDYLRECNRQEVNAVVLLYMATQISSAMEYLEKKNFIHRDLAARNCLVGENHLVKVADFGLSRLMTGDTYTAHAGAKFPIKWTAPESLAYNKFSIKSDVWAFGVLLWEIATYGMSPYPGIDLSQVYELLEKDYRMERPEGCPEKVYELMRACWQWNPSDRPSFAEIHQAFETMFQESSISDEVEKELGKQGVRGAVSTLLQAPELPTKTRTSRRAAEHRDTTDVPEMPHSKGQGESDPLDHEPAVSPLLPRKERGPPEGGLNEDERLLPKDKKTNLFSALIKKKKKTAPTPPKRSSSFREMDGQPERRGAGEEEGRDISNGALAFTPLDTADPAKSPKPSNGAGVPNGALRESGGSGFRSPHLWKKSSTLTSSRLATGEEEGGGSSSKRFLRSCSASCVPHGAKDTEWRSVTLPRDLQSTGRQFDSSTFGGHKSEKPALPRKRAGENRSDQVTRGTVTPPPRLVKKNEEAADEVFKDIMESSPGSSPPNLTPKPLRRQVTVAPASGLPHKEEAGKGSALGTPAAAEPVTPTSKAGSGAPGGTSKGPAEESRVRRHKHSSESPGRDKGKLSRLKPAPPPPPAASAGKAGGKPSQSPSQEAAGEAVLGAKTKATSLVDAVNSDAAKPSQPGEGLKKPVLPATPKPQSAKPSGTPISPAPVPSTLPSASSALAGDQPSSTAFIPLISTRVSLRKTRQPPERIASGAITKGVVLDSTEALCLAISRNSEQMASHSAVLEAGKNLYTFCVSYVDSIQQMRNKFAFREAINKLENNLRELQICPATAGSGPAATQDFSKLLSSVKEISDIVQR

IC50 [1] [nM]	IC50 (Aurora kinase B) [nM]	IC50 [2] [nM]	IC50 [3] [nM]	solubility [4] [µM]	IC50 [5] [nM]	IC50 [6] [nM]	pKa [7]	IC50 [8] [nM]	IC50 [9] [nM]	Compound
10300	187	8	–	–	–	–	–	–	–	Cc1cc(Nc2ncc(C)c(N3CC(CC#N)(OC4CC5(CC5)C4)C3)n2)sn1
–	–	2	15	13 (≈ 5.06 µg/mL)	18	2	4.2	–	–	Cc1cnc(Nc2ccc(N3CCOCC3)cc2)nc1-c1cnn(CCC#N)c1
80	0.97	2.5	–	–	–	–	–	–	–	Cc1cc(Nc2ncc(C)c(N3CC(O)(C4CC4)C3)n2)sn1
–	–	41900	50000	390 (≈ 122 µg/mL)	50000	50000	–	–	–	Cc1cnc(NC2CCOCC2)nc1-c1cnn(CCC#N)c1
–	1.1	–	–	–	–	–	–	–	–	Cc1cc(Nc2ncc(C)c(N3CCC(CC#N)CC3)n2)sn1
–	6	9	–	–	–	–	–	–	–	Cc1cc(Nc2ncc(C)c(N3CC(CC#N)C3)n2)sn1
568	3	13	–	–	–	–	–	–	–	Cc1cc(Nc2ncc(C)c(N3CC(CCC#N)C3)n2)sn1
–	–	–	3	–	–	1.5	–	–	–	Cc1cc(Nc2ncc(Cl)c(-c3cnn(CCC#N)c3)n2)sn1
–	–	–	50000	–	–	50000	–	–	–	Cc1cc(Nc2cc(-c3cnn(CCC#N)c3)c(Cl)cn2)sn1
–	–	27	538	–	–	49	–	–	–	Cn1cc(Nc2nccc(-c3cnn(CCC#N)c3)n2)cn1
1240	3	3	–	19 (≈ 6.53 µg/mL)	–	–	–	1360	55	Cc1cc(Nc2ncc(C)c(N3CCN(CC#N)C(C)C3)n2)sn1 (stereo not given)
2030	364	5.4	–	35 (≈ 12.9 µg/mL)	–	–	–	3240	1580	Cc1cc(Nc2ncc(C)c(N3CC4CCCC(C3)N4CC#N)n2)sn1
–	22	–	–	–	–	–	–	–	–	Cc1cc(Nc2ncc(C)c(N3CC(CC#N)(N4CCCC4)C3)n2)sn1
207	2.5	2	3	–	14	1.5	–	–	–	Cc1cc(Nc2ncc(C)c(-c3cnn(CCC#N)c3)n2)sn1
8430	–	4.4	–	–	–	–	–	–	–	Cc1cc(Nc2ncc(C)c(N3CC(CC#N)(N4CCCCC4)C3)n2)sn1
50000	764	34	–	–	–	–	–	–	–	Cc1cnc(Nc2cnn(C)c2)nc1N1CC(CC#N)(N2CCN(C)CC2)C1
–	–	2	13	33500 (≈ 13500 µg/mL)	16	2	–	–	–	Cc1cnc(Nc2ccc(N3CCN(C)CC3)cc2)nc1-c1cnn(CCC#N)c1
228	22	1.5	–	16 (≈ 5.5 µg/mL)	–	–	–	2200	30	Cc1cc(Nc2ncc(C)c(N3CCN(CC#N)[C@@H](C)C3)n2)sn1
537	2.5	0.98	–	11 (≈ 4.22 µg/mL)	–	–	–	565	109	Cc1cc(Nc2ncc(C)c(N3CC4CCCC(C3)N4CCC#N)n2)sn1
467	1.5	3.4	–	7 (≈ 2.31 µg/mL)	–	–	–	1620	41	Cc1cc(Nc2ncc(C)c(N3CCN(CC#N)CC3)n2)sn1
–	–	–	12	69 (≈ 21.3 µg/mL)	55	3.4	–	–	–	Cc1cnc(Nc2cnn(C)c2)nc1-c1cnn(CCC#N)c1
–	1.5	0.98	–	–	–	–	–	311	96	Cc1cc(Nc2ncc(C)c(N3CC4CCC(C3)N4CCC#N)n2)sn1
–	19	3.4	2	–	11	3.4	–	9900	936	Cc1cnc(Nc2cnn(C)c2)nc1N1CC2CCCC(C1)N2CCC#N
–	–	6	50	52 (≈ 15.8 µg/mL)	143	11	–	–	–	Cc1cnc(Nc2ccccc2)nc1-c1cnn(CCC#N)c1
–	–	19500	50000	–	50000	–	–	–	–	Cc1cnc(NCCN2CCOCC2)nc1-c1cnn(CCC#N)c1
16800	913	61	–	7090 (≈ 2500 µg/mL)	–	–	–	36400	7390	Cc1cnc(Nc2cnn(C)c2)nc1N1CC2CCCC(C1)N2CC#N
1310	4	3.9	–	11 (≈ 3.91 µg/mL)	–	–	–	1680	221	Cc1cc(Nc2ncc(C)c(N3CC4CCC(C3)N4CC#N)n2)sn1
–	21	3.4	–	–	–	–	–	–	–	Cc1cc(Nc2ncc(C)c(N3CC(C4CC4)C3)n2)sn1
21400	441	–	–	–	70	2.9	–	–	–	Cc1cc(Nc2ncc(C)c(N3CC(CC#N)(N4CCN(C)CC4)C3)n2)sn1
351	7	0.98	0.99	–	3.4	0.98	–	395	–	Cc1cnc(Nc2cnn(C)c2)nc1-c1cnn([C@H](CC#N)C2CCCC2)c1
